Results on 36 molecules are retold here after patent US5773423A (priority 1994, dated 1998).

Usually Ki stands for a measure of affinity in units of concentration, obtained from inhibition or displacement.

Experiment [1] concerns the target T1, A2 receptors from rat striatal membranes (Rattus norvegicus, UniProt P30543).
T1 construct: Rat cerebral cortical and striatal membranes were prepared; from tissue; host or cells: rat striatal membranes
The experiment can be described thus: Radioligand binding at A2 (A2a) receptors, displacement of [3H]CGS 21680 (or [3H]NECA with 50 nM CPA) from rat striatal membranes.

For experiment [2], the target named is T2, A1 receptors from rat brain membranes (Rattus norvegicus, UniProt P25099).
T2 construct: Rat cerebral cortical and striatal membranes were prepared; from tissue; host or cells: rat brain (cerebral cortical) membranes
T2 sequence (P25099 1-326): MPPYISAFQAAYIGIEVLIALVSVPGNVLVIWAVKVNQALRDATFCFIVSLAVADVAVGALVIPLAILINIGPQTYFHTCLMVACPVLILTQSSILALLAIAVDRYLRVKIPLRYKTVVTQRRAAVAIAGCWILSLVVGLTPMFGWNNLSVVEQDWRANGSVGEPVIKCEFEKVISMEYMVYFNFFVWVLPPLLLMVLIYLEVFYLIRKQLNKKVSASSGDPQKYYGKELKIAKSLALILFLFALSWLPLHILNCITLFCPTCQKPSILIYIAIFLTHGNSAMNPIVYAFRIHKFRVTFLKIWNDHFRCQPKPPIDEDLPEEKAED
The experiment is described as follows: biochemical. In kind it is binding. As to conditions: for inhibition at 100 µM: read-out: A1 percent displacement.

Setting [3] is: read-out: A2 percent displacement.
The mark [4] stands for this setting: rat striatal membranes, displacement of [3H]CGS 21680 (or [3H]NECA + 50 nM CPA), read-out: A2 affinity Ki.
The mark [5] stands for this setting: rat brain membranes, displacement of [3H]PIA (or [3H]CHA), read-out: A1 affinity Ki.
Setting [6] is: at 100 μM, read-out: A2 percent displacement.

The structures appear in SMILES notation. Counter-ions that a name gives are not always drawn. Like-named read-outs stand apart in the source and are kept apart here. Bounds are passed on as bounds.

T1 sequence (P30543 whole entry): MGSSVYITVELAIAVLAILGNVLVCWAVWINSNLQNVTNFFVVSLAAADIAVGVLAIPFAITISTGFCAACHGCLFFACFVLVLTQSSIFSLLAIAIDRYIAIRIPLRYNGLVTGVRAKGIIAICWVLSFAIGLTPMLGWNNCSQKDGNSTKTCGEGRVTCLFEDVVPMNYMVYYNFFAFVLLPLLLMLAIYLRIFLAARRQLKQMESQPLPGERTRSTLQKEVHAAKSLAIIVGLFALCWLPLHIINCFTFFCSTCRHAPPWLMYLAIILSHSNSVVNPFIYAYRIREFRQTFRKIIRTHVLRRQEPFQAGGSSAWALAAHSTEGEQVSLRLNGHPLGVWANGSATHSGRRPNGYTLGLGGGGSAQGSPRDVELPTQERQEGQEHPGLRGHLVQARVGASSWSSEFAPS

For the molecule `Nc1ccc(CCNc2ncnc3c2ncn3[C@@H]2O[C@H](CO)[C@@H](O)[C@H]2O)cc1` [APNEA, N^6-2-(4-aminophenyl)ethyladenosine, reference compound], the Ki in experiment [1] (Table 2, [3H]CGS 21680, rat striatal membranes, read-out: Ki (A2)) is 172 ± 50 nM. Further, the A1 selectivity in experiment [2] was 8 fold.
For `NCCNC(=O)[C@H]1O[C@@H](n2cnc3c(N)ncnc32)[C@H](O)[C@@H]1O` [Compound 25, 5'-N-aminoethylaminocarboxamidoadenosine], the inhibition at 100 µM turned out to be 12.5% in experiment [1] (setting [3]) and 0% in experiment [2].
As to `CC(C)(C)OC(=O)NCCNC(=O)[C@H]1O[C@@H](n2cnc3c(N)ncnc32)[C@H](O)[C@@H]1O` [Compound 26, 5'-N-boc-aminoethylaminocarboxamidoadenosine], the inhibition at 100 µM in experiment [1] (setting [3]) and in experiment [2] (at 100 μM) was 0% throughout.
With `CN(Cc1ccccc1)c1ncnc2c1ncn2[C@@H]1O[C@H](CO)[C@@H](O)[C@H]1O` [Compound 30, N^6 -benzyl-N^6 -methyladenosine, reference compound], the Ki in experiment [1] (setting [4]) is 40100 nM; in experiment [2] (setting [5]), 7600 nM.
In the case of `Nc1ncnc2c1nc(Br)n2[C@@H]1O[C@H](CO)[C@@H](O)[C@H]1O` [Compound 31, 8-bromoadenosine, reference compound], the Ki in experiment [1] (setting [4]) worked out at 22700 nM. In addition, in experiment [2], the inhibition at 100 µM came out at 41.5 ± 3.2%.
`Nc1c2ncn([C@@H]3O[C@H](CO)[C@@H](O)[C@H]3O)c2nc[n+]1[O-]` [Compound 34, adenosine-N^1 -oxide, reference compound]: the Ki in experiment [1] (setting [4]) came to 328 ± 60 nM; in experiment [2], 246 ± 31 nM.
Consider `[O-][n+]1cnc2c(ncn2[C@@H]2O[C@H](CO)[C@@H](O)[C@H]2O)c1NCc1ccccc1` [Compound 36, N^6 -benzyladenosine-N^1 -oxide], for which the figures for the Ki in experiment [1] (setting [4]) and in experiment [2] (setting [5]) were 8530 nM and 864 ± 88 nM, respectively.
Regarding `CCNC(=O)[C@H]1O[C@@H](n2cnc3c(=N)n(Cc4ccc([N+](=O)[O-])cc4)cnc32)[C@H](O)[C@@H]1O` [Compound 37], the inhibitory constant (Ki) in experiment [1] (setting [4]) was determined as 190 ± 52 nM; in experiment [2] (setting [5]) it was 341 ± 52 nM.
For `CCNC(=O)[C@H]1O[C@@H](n2cnc3c(=N)n(Cc4ccccc4[N+](=O)[O-])cnc32)[C@H](O)[C@@H]1O` [Compound 38, N'-(2-nitrobenzyl)NECA], the Ki in experiment [1] (setting [4]) is 83.5 ± 9.5 nM; in experiment [2] (setting [5]) it was 196 ± 52 nM.
On the same counts, the results for `NC(=O)[C@H]1O[C@@H](n2cnc3c(NCc4ccccc4)ncnc32)[C@H](O)[C@@H]1O` [Compound 39, N^6-benzyl-5'-carboxamidoadenosine] are 423 ± 46 nM and 580 ± 99 nM.
For `CNC(=O)[C@H]1O[C@@H](n2cnc3c(NCc4ccccc4)ncnc32)[C@H](O)[C@@H]1O` [Compound 40, N^6-benzyladenosine-5'-N-methyluronamide], the results for the Ki in experiment [1] (setting [4]) and in experiment [2] (setting [5]) were 597 ± 42 nM and 898 ± 124 nM, respectively.
As to `CNC(=O)[C@H]1O[C@@H](n2cnc3c(NCc4cccc(Br)c4)ncnc32)[C@H](O)[C@@H]1O` [Compound 41, N^6-(3-bromobenzyl)-NMCA], the Ki came out at 64 ± 9 nM in experiment [1] (setting [4]) and 65 ± 2 nM in experiment [2] (setting [5]).
For the molecule `CNC(=O)[C@H]1O[C@@H](n2cnc3c(NCc4cccc(NC(C)=O)c4)ncnc32)[C@H](O)[C@@H]1O` [Compound 45, N^6-(3-acetamidobenzyl)-NMCA], the inhibition at 100 µM in experiment [1] (setting [3]) came out at 12.5 ± 1.9%. In addition, in experiment [2] (setting [5]), the Ki was determined as 7370 nM.
Consider `CNC(=O)[C@H]1O[C@@H](n2cnc3c(NCc4cccc(C)c4)ncnc32)[C@H](O)[C@@H]1O` [Compound 46, N^6-(3-methylbenzyl)-NMCA], for which the results for the inhibition constant (Ki) in experiment [1] (setting [4]) and in experiment [2] (setting [5]) were 415 ± 33 nM and 322 ± 23 nM, respectively.
The matching figures for `CNC(=O)[C@H]1O[C@@H](n2cnc3c(NCc4ccc(N)cc4)ncnc32)[C@H](O)[C@@H]1O` [Compound 50, N^6-(4-aminobenzyl)-NMCA]: 1590 nM and 431 ± 45 nM.
On the same counts, the results for `CNC(=O)[C@H]1O[C@@H](n2cnc3c(NCc4cccc(S(=O)(=O)O)c4)ncnc32)[C@H](O)[C@@H]1O` [Compound 52, N^6-(3-sulfobenzyl)-NMCA triethylammonium salt] are greater than 10000 nM and greater than 10000 nM.
For `CNC(=O)[C@H]1O[C@@H](n2cnc3c(NCc4ccc(S(=O)(=O)O)cc4)ncnc32)[C@H](O)[C@@H]1O` [Compound 53, N^6-(4-sulfobenzyl)adenosine-5'-N-methyluronamide triethylammonium salt], the inhibition at 100 µM in experiment [1] (setting [3]) and in experiment [2] (at 100 μM) was 0% in each case.
For `CCNC(=O)[C@H]1O[C@@H](n2cnc3c(N[C@H](C)c4ccccc4)ncnc32)[C@H](O)[C@@H]1O` [Compound 55, N^6 -(R-phenylethyl)-NECA], the values for the Ki in experiment [1] (setting [4]) and in experiment [2] (setting [5]) were 259 ± 15 nM and 3.2 ± 0.1 nM, respectively.
As for `CCNC(=O)[C@H]1O[C@@H](n2cnc3c(NCc4cccc(F)c4)ncnc32)[C@H](O)[C@@H]1O` [Compound 57, N^6-(3-fluorobenzyl)adenosine-5'-N-ethyluronamide], the inhibition constant Ki is 32 ± 4 nM in experiment [1] (setting [4]) and 51 ± 7 nM in experiment [2] (setting [5]).
Regarding `CCNC(=O)[C@H]1O[C@@H](n2cnc3c(NCc4cccc(Cl)c4)ncnc32)[C@H](O)[C@@H]1O` [Compound 58, N^6-(3-chlorobenzyl)adenosine-5'-N-ethyluronamide], the results for the Ki in experiment [1] (setting [4]) and in experiment [2] (setting [5]) were 19 ± 0.3 nM and 22 ± 3 nM, respectively.
In the case of `CCNC(=O)[C@H]1O[C@@H](n2cnc3c(NCc4cccc(I)c4)ncnc32)[C@H](O)[C@@H]1O` [Compound 60, N^6-(3-iodobenzyl)-NECA], the Ki turned out to be 7.2 ± 0.6 nM in experiment [1] (setting [4]) and 7.7 ± 0.9 nM in experiment [2] (setting [5]).
On the same counts, the results for `CCNC(=O)[C@H]1O[C@@H](n2cnc3c(NCc4ccccc4[N+](=O)[O-])ncnc32)[C@H](O)[C@@H]1O` [Compound 61, N^6-(2-nitrobenzyl)adenosine-5'-N-ethyluronamide] are 24 ± 3 nM and 31 ± 4 nM.
On the same counts, the results for `CCNC(=O)[C@H]1O[C@@H](n2cnc3c(NCc4cccc([N+](=O)[O-])c4)ncnc32)[C@H](O)[C@@H]1O` [Compound 62, N^6-(3-nitrobenzyl)-NECA] are 35 ± 7 nM and 78 ± 10 nM.
On the same counts, the results for `CCNC(=O)[C@H]1O[C@@H](n2cnc3c(NCc4cccc(C)c4)ncnc32)[C@H](O)[C@@H]1O` [Compound 64, N^6-(3-methylbenzyl)-NECA] are 17.7 ± 1.8 nM and 36.5 ± 1.2 nM.
Turning to `CCNC(=O)[C@H]1O[C@@H](n2cnc3c(NCc4ccccc4OC)ncnc32)[C@H](O)[C@@H]1O` [Compound 65, N^6-(2-methoxybenzyl)-NECA], the inhibition constant Ki in experiment [1] (setting [4]) is 21 ± 3 nM; in experiment [2] (setting [5]), 52 ± 5 nM.
On the same counts, the results for `CCNC(=O)[C@H]1O[C@@H](n2cnc3c(NCc4cccc(OC)c4)ncnc32)[C@H](O)[C@@H]1O` [Compound 66, N^6-(3-methoxybenzyl)-NECA] are 38 ± 6 nM and 69 ± 8 nM.
On the same counts, the results for `CCNC(=O)[C@H]1O[C@@H](n2cnc3c(NCc4ccc(OC)cc4)ncnc32)[C@H](O)[C@@H]1O` [Compound 67, N^6-(4-methoxybenzyl)adenosine-5'-N-ethyluronamide] are 609 ± 34 nM and 209 ± 30 nM.
Consider `Nc1ncnc2c1ncn2[C@H]1C[C@H](O)[C@@H](CO)O1` [Compound 70, 2'-deoxyadenosine, reference compound], for which the figures for the inhibition at 100 µM in experiment [1] (setting [6]) and in experiment [2] (at 100 μM) were 38.9 ± 2.9% and 30.9 ± 8%, respectively.
Take `CO[C@@H]1[C@H](O)[C@@H](CO)O[C@H]1n1cnc2c(N)ncnc21` [Compound 71, 2'-O-methyladenosine, reference compound]: the values for the inhibition at 100 µM in experiment [1] (setting [6]) and in experiment [2] (at 100 μM) were 49 ± 5% and 29.4 ± 7.5%, respectively.
On the same counts, the results for `Nc1ncnc2c1ncn2[C@@H]1O[C@H](CO)C[C@H]1O` [Compound 72, 3'-deoxyadenosine, reference compound] are 26.3 ± 3.4% and 5.8 ± 2.8%.
Turning to `C[C@H]1O[C@@H](n2cnc3c(N)ncnc32)[C@H](O)[C@@H]1O` [Compound 73, 5'-deoxyadenosine, reference compound], the inhibition constant (Ki) in experiment [1] (setting [4]) was 596 ± 54 nM; in experiment [2] (setting [5]), 269 ± 135 nM.
`NC[C@H]1O[C@@H](n2cnc3c(N)ncnc32)[C@H](O)[C@@H]1O` [Compound 74, 5'-deoxy-5'-aminoadenosine, reference compound]: the Ki in experiment [2] (setting [5]) is 42700 nM.
Take `CC(C)CSC[C@H]1O[C@@H](n2cnc3c(N)ncnc32)[C@H](O)[C@@H]1O` [Compound 76, 5'-deoxy-5'-isobutylthio adenosine, reference compound]: the Ki in experiment [1] (setting [4]) was 6890 nM; in experiment [2] (setting [5]), 1140 nM.
As to `Nc1ncnc2c1ncn2[C@@H]1O[C@H](COP(=O)(O)O)[C@@H](O)[C@H]1O` [Compound 78, adenosine-5'-monophosphate, reference compound], the inhibition at 100 µM in experiment [1] (setting [3]) worked out at 57.5 ± 4%. For the same molecule, in experiment [2], the affinity, expressed as Ki, was 47500 ± 6500 nM.
With `CCCCn1c(=O)c2c(ncn2[C@@H]2O[C@H](C(=O)NC)[C@@H](O)[C@H]2O)n(CCCC)c1=O` [Compound 124, N-methyl 1,3-di-n-butylxanthine-7-β-D-ribofuronamide], in experiment [2], the inhibition at 100 µM worked out at 30%.
As to `CCCCCCn1c(=O)c2c(ncn2[C@@H]2O[C@H](C(=O)NC)[C@@H](O)[C@H]2O)n(CCCCCC)c1=O` [Example 69, N-methyl 1,3-di-n-hexylxanthine-7-β-D-ribofuronamide], the inhibition at 100 µM in experiment [1] (Table 4, at 10^-4 M, read-out: percent displacement of radioligand at A2) was 0%.
